How the values were obtained:
[1] = system: P. falciparum parasites (DV morphology); test: Digestive vacuole phenotype, light microscopy of Giemsa-stained parasites; format: cell-based, Plasmodium falciparum; conditions: 3.3 µM compound
malaria parasite = conditions: cited from earlier work

| Structure (SMILES) | DV phenotype [1] | Antimalarial activity (malaria parasite) |
| --- | --- | --- |
| CC(C)C[C@H](NC(=O)[C@H]1O[C@@H]1C(=O)O)C(=O)NCCCCN=C(N)N [Compound E64, E64] | swollen and dark staining DV phenotype |  |
| Nc1cc(Cl)ccc1Cl [2,5-dichloroaniline] |  | without antimalarial activity |

From paper PMC3574796 (Future medicinal chemistry, 2012)
